The source of these data is ChEMBL document CHEMBL1141991, “Functionalized dendrimers as endotoxin sponges” (Bioorg Med Chem Lett, 2005).

The nature of experiment [1]: Inhibitory concentration against lipopolysaccharide in BC fluorescenced murine macrophages J774A. In kind it is functional, Mus musculus.
For a further experiment, the species on record is Mus musculus. Put plainly: Effective dose against lipopolysaccharide in BC fluorescenced murine macrophages J774A. In kind it is functional.

The sequence POLYMYXIN B [listing 1 of 2 here] yielded an IC50 in experiment [1] of 210 µM.
Sequence POLYMYXIN B [listing 2 of 2 here] displayed an ED50 in the experiment filed under Mus musculus of 0.31 µM.
